Reference: US9487530B2, “Transient protection of normal cells during chemotherapy” (G1 Therapeutics, Inc., priority 2013, dated 2016)
pIC50: −log10 of the molar value. Like-named read-outs stand apart in the source and are kept apart here.

Tests used:
[1] = Mouse pharmacokinetics, oral gavage and intravenous; format: in vivo
[2] = target: T1, CDK2/CycE (Homo sapiens, UniProt P24941); assay: CDK2/cyclinE kinase assay (Nanosyn, Caliper microfluidic); format: biochemical
T1 construct: Nanosyn (ran the assay as a service)
Method: Selected compounds disclosed herein were tested in CDK4/cyclinD1, CDK6/CycD3 CDK2/CycA and CDK2/cyclinE kinase assays by Nanosyn (Santa Clara, Calif.) to determine their inhibitory effect on these CDKs. The assays were performed using microfluidic kinase detection technology (Caliper Assay Platform). The compounds were tested in 12-point dose-response format in singlicate at Km for ATP. Phosphoacceptor substrate peptide concentration used was 1 μM for all assays and Staurosporine was used as the reference compound for all assays.

[3] = target: T2, CDK4/CycD1 (Homo sapiens, UniProt P11802); assay: CDK4/cyclinD1 kinase assay (Nanosyn, Caliper microfluidic); format: biochemical
T2 construct: Nanosyn (ran the assay as a service)
T2 sequence (P11802 whole entry, species assumed): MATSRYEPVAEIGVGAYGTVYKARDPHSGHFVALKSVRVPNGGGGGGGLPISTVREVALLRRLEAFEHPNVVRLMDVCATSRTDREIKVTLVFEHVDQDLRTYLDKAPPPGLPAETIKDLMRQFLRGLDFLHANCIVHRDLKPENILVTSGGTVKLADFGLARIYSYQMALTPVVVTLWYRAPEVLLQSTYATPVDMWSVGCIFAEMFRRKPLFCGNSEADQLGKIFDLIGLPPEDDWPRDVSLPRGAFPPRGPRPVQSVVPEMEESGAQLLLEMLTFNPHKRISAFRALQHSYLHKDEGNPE
T2 sequence (P24385 whole entry partner, species assumed): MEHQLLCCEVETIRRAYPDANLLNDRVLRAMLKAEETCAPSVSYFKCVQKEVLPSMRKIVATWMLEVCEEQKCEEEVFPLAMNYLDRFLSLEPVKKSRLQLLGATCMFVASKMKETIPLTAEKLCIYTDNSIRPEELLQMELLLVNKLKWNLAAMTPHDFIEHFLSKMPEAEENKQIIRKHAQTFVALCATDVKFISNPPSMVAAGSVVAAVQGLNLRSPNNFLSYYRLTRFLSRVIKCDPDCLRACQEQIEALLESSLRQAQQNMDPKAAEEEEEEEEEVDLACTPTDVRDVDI
Method: Selected compounds disclosed herein were tested in CDK4/cyclinD1, CDK6/CycD3 CDK2/CycA and CDK2/cyclinE kinase assays by Nanosyn (Santa Clara, Calif.) to determine their inhibitory effect on these CDKs. The assays were performed using microfluidic kinase detection technology (Caliper Assay Platform). The compounds were tested in 12-point dose-response format in singlicate at Km for ATP. Phosphoacceptor substrate peptide concentration used was 1 μM for all assays and Staurosporine was used as the reference compound for all assays. Specifics of each assay are as described below:
CDK4/CyclinD1: Enzyme concentration: 1 nM; ATP concentration: 200 μM; Incubation time: 10 hr.

[4] = test system: HSPCs; assay: Bone marrow HSPC proliferation by EdU incorporation and flow cytometry; format: in vivo, mouse; details: for EdU incorporation into HSPCs compared to control: 150 mg/kg oral gavage, 12 and 24 hours, FIG. 6A
Method: Mice were then sacrificed at the indicated times (0, 12, 24, 36, or 48 hours following compound administration), and bone marrow was harvested (n=3 mice per time point), as previously described (Johnson et al. J. Clin. Invest. (2010) 120(7), 2528-2536). Four hours before the bone marrow was harvested, mice were treated with 100 μg of EdU by intraperitoneal injection (Invitrogen). Bone marrow mononuclear cells were harvested and immunophenotyped using previously described methods and percent EdU positive cells were then determined (Johnson et al. J. Clin. Invest. (2010) 120(7), 2528-2536). In brief, HSPCs were identified by expression of lineage markers (Lin−), ScaI (S+), and c-Kit (K+).
Four hours before animals were sacrificed and the bone marrow was harvested, mice were treated with 100 μg of EdU by intraperitoneal injection. Three mice per group were sacrificed at 12 hours and the remaining three animals per group were sacrificed at 24 hours. Results are shown in FIG. 6A as the ratio of EdU positive cells for treated animals at 12 or 24 hour time points compared to control.
Further experiments were completed with Compound T examining dose response and longer periods of compound treatment. […] […].
Both compounds were administered at 150 mg/kg by oral gavage. One hour prior to harvesting bone marrow, EdU was IP injected to label cycling cells. Bone marrow was harvested at 12, 24, 36, and 48 hours after compound treatment and the percentage of EdU positive HSPC cells was determined at each time point.

[5] = in humans; cited from earlier work
[6] = test system: RB-negative SCLC cell lines (H69, H82, H209, H345, NCI417, SHP-77); assay: EdU proliferation, RB-negative SCLC cell lines; format: cell-based, human; details: 24 hours treatment
Method: (§1) The effect of Cdk4/6 inhibition on proliferation was measured by EdU incorporation. An RB-intact, Cdk4/6-dependent cell line (WM2664 or tHS68) and a panel of RB-negative SCLC cell lines (H69, H82, H209, H345, NCI417, or SHP-77) were analyzed for growth inhibition by the various CDK4/6 inhibitors.

[7] = PD0332991 pharmacokinetics and HSPC arrest in humans; format: in vivo, human; details: single administration
Method: When calculated half-life was longer than the duration of the experiment, the half-life was expressed as >the longest incubation time. The calculated half-life is also listed in parentheses. […] The timely resumption of cellular proliferation is necessary for tissue repair, and therefore an overly long period of arrest is undesirable in healthy cells such as HSPCs. The characteristics of a CDK4/6 inhibitor that dictate its arresting duration are its pharmacokinetic (PK) and enzymatic half-lives. Once initiated, a G1-arrest in vivo will be maintained as long as circulating compound remains at an inhibitory level, and as long as the compound engages the enzyme. […] […]. […] […]. These observations may explain the severe granulocytopenia seen with PD0332991 in the clinic.

[8] = test system: Renal Proximal Tubule Epithelial Cells (Rb-positive); assay: Cellular wash-out experiment, renal proximal tubule epithelial cells; format: cell-based, human; details: 300 nM; compared to cells treated with compounds T, Q, GG, or U
Method: Alternatively, the same experiment was done using normal Renal Proximal Tubule Epithelial Cells (Rb-positive) obtained from American Type Culture Collection (ATCC, Manassas, Va.). Cells were grown in an incubator at 37° C. in a humidified atmosphere of 5% CO2 in Renal Epithelial Cell Basal Media (ATCC) supplemented with Renal Epithelial Cell Growth Kit (ATCC) in 37° C. humidified incubator.
Upon harvesting cells, samples were stained with propidium iodide staining solution and samples run on Dako Cyan Flow Cytometer. The fraction of cells in G0-G1 DNA cell cycle versus the fraction in S-phase DNA cell cycle was determined using FlowJo 7.2.2 analysis.

[9] = in mice; cited from earlier work
[10] = test system: HSPC (LKS+) and myeloid progenitor cells (LKS-); details: single 150 mg/kg oral gavage; FIG. 5; cited from earlier work
[11] = test system: Rb-positive cell line (WM2664 or tHS68); assay: EdU proliferation, RB-intact Cdk4/6-dependent cell line; format: cell-based; details: 24 hours treatment
Method: as §1

[12] = test system: bone marrow progenitors; assay: Carboplatin-induced cytotoxicity in the bone marrow; format: in vivo, mouse; details: 150 mg/kg oral gavage plus 90 mg/kg carboplatin i.p.; 24 hours
Method: To assess the effect of transient CDK4/6 inhibition by Compound GG on carboplatin-induced cytotoxicity in the bone marrow, FVB/n mice (n=3 per group) were treated with vehicle control, 90 mg/kg carboplatin by intraperitoneal injection, or 150 mg/kg Compound GG by oral gavage plus 90 mg/kg carboplatin by intraperitoneal injection. 24 hours after treatment bone marrow was harvested and the percent of cycling bone marrow progenitors was measured by EdU incorporation as explained earlier. […] EdU incorporation in control animals was normalized to 100% and compared to EdU incorporation for bone marrow from carboplatin treated animals or carboplatin and Compound GG treated animals.

O=C1NCC2(CCCCC2)n2c1cc1cnc(Nc3ccc(N4CCC(N5CCOCC5)CC4)cn3)nc12 [U, 2′-((5-(4-morpholinopiperidin-1-yl)pyridin-2-yl)amino)-7′,8′-dihydro-6′H-spiro[cyclohexane-1,9′-pyrazino[1′,2′:1,5]pyrrolo[2,3-d]pyrimidin]-6′-one]
F (oral bioavailability) [1]: 67%

CCC(C)[C@@H]1CNC(=O)c2cc3cnc(Nc4ccc(N5CCNCC5)cn4)nc3n21 (stereo partly shown) [VVV]
pIC50 [2]: 5.36
pIC50 [3]: 8.13

O=C1NCC2(CCCCC2)n2c1cc1cnc(Nc3ccc(N4CCNCC4)cn3)nc12 [Q, 2′-((5-(piperazin-1-yl)pyridin-2-yl)amino)-7′,8′-dihydro-6′H-spiro[cyclohexane-1,9′-pyrazino[1′,2′:1,5]pyrrolo[2,3-d]pyrimidin]-6′-one]
EdU incorporation into HSPCs compared to control [4]: some reduction at 12 hours and started to return to baseline at 24 hours
oral bioavailability [1]: low

CC(=O)c1c(C)c2cnc(Nc3ccc(N4CCNCC4)cn3)nc2n(C2CCCC2)c1=O [PD0332991, 6-acetyl-8-cyclopentyl-5-methyl-2-(5-piperazin-1-yl-pyridin-2-ylammino)-8H-pyrido-[2,3-d]-pyrimidin-7-one]
PK half-life [5]: 27 h
growth (cells in S-phase by EdU) [6]: does not affect the growth
duration of cell cycle arrest of HSPC [7]: approximately one week
time to return to baseline levels of cell division after wash out [8]: significantly longer
PK half-life [9]: 6 h
duration of sustained reduction in HSPC and myeloid progenitor cell EdU incorporation [10]: greater than 36 hours
time until HSPC and myeloid progenitor cells return to baseline cell division [10]: 48 h
duration of sustained reduction in HSPCs ([4]; single 150 mg/kg oral dose, FIG. 7): greater than 36 hours
proliferation (cells in S-phase by EdU) [11]: inhibits

CC(C)N1CCN(c2ccc(Nc3ncc4cc5n(c4n3)C3(CCCCC3)CNC5=O)nc2)CC1 [GG, 2′-((5-(4-isopropylpiperazin-1-yl)pyridin-2-yl)amino)-7′,8′-dihydro-6′H-spiro[cyclohexane-1,9′-pyrazino[1′,2′:1,5]pyrrolo[2,3-d]pyrimidin]-6′-one]
growth (cells in S-phase by EdU) [6]: does not affect the growth
cycling bone marrow progenitors (EdU incorporation) [12]: significant protection of bone marrow progenitors
EdU incorporation into HSPCs compared to control [4]: reduction in EdU incorporation at 12 hours which was starting to return to normal at 24 hours
proliferation (cells in S-phase by EdU) [11]: inhibits
F (oral bioavailability) [1]: 52%
